From PMC9824012, “Exploring Antimicrobial Peptides Efficacy against Fire Blight (Erwinia amylovora)” (Plants, 2022)
Read-outs that look alike come from different tables or passages of the source. Ends that are not written are not given here.

Tests used:
Erwinia amylovora [1] = experiment: Transmission electron microscopy of treated cells; format: cell-based, Erwinia amylovora strain PGL Z1; conditions: antibiotic control 0.5 mg/mL
Experimental: Aliquots of E. amylovora suspensions were incubated with the KL29 for 15 min at room temperature to investigate peptide antibacterial modes of action (lytic and non-lytic). E. amylovora suspensions treated with 0.5 mg/mL of streptomycin (bacteriostatic antibiotic), and ampicillin (bactericidal antibiotic) were used as controls. Preparations were observed under TEM (FEI MORGAGNI 282D, Hillsboro, OR, USA) by the dip method: the carbon coated copper/rhodium grids were incubated with treated and untreated bacterial suspension for 2 min, and then rinsed with 200 μL of distilled water. Negative staining was obtained by floating the grids on 200 μL of 0.5 % w/v UA-zero EM STAIN (Agar-Scientific Ltd., Stansted, UK) solution and observing them under the EM using an accelerating voltage of 80 kV.

Erwinia amylovora [2] = experiment: In vivo antibacterial activity on inoculated immature pear fruits; parameters: species or system Erwinia amylovora on pear fruits (cv. 'Recchia falsa'); conditions: immature pears, 6 days at 25 °C, eight replicates
Experimental: To evaluate the in vivo antibacterial activity of selected AMPs, immature pear fruits (cv. ‘Recchia falsa’) were inoculated with E. amylovora and AMPs were applied. Briefly, ten-week-old pears were disinfected by immersion in a 70% ethanol solution for 2 min and then rinsed 3 times in sterile distilled water. Disinfected fruits were pricked to approximately 5 mm deep, with a sterile micropipette tip and inoculated with 20 µL of E. amylovora suspension (10^8 CFU/mL). Once the fruits had absorbed the bacteria, two concentrations of peptides (50 and 250 µM) were used; 20 µL of the concentration was introduced into the inoculation site and incubated in a humid chamber at 25 °C for 6 days. Fruits inoculated with sterile water and with E. amylovora suspension were included as controls. The experiment consisted of eight replicates per treatment, and symptoms were recorded at 6 days post-infection. The symptoms developed in immature pears (i.e., necrosis or bacterial exudates) were evaluated by measuring the diameter of necrotic lesions. The data were then analyzed using variance analysis (ANOVA), followed by Duncan’s multiple range test (α = 0.05), using SPSS statistical software (version 24.0, IBM, Armonk, N.Y., USA). All data were presented as mean values ± standard deviation (SD).

Erwinia amylovora [3] = experiment: Fluorescence microscopy LIVE/DEAD BacLight (SYTO9/PI); format: cell-based, Erwinia amylovora strain PGL Z1; conditions: 1 h, calculated from SYTO9 and PI counts
Experimental: The bactericidal activity of the selected peptides (GF19, FG22, IL14, and KL29) was assessed by a test contact for 24 h, as described (Section 2.3), coupled with v-qPCR assay using the PMAxx™ (Biotium, Rome, Italy). PMAxx™ is a photo-reactive dye that binds to DNA with high affinity; upon cell lysis, it covalently attaches to disrupted DNA that cannot be amplified by PCR. This unique feature makes PMAxx™ extremely useful in selective detection of bacterial cells with intact plasma membranes by qPCR. Briefly, after 24 h at 25 °C, 200 µL of the mixture was transferred to a new tube and treated with PMAxx at a final concentration of 7.5 μM. Subsequently, samples were incubated in the dark at room temperature for 8 min, followed by photoactivation for 15 min. Genomic DNA of all samples was extracted using the cetyltrimethylammonium bromide (CTAB) method. v-qPCR was carried out in a thermocycler apparatus (Bio-Rad CFX96, BioRad, Milan, Italy), using Ea-lsc primers and conditions reported in Laforest et al.. The v-qPCR cycles consisted of an initial denaturation step of 95 °C for 5 min; 45 cycles of 95 °C for 30 s and 60 °C for 30 s with fluorescence readings at each cycle. For the FM assay, aliquots of E. amylovora suspension were incubated with 50 and 250 μM of selected peptides for 1 h at room temperature. The same protocol was used for X. campestris at different concentrations (100, 50, 25, 12.5, 6.25, 2 μM) using KL29 peptide, known for its potent bactericidal activity against X. campestris. The LIVE/DEAD ®BacLight™ viability kit (ThermoFisher Scientific, Milan, Italy) was used according to the manufacturer’s recommendation to assess the integrity of bacteria cells treated with the peptides at 1 h post-infection (Stocks, 2004). Briefly, 9 μL of sample was mixed with 0.5 μL of SYTO9 and 0.5 μL of propidium iodide (PI) for 15 min at room temperature in the dark. Photomicrographs were taken with a Nikon E800 microscope using a fluorescein isothiocyanate (480/30 excitation filter, DM505 dichroic mirror, 535/40 emission filter) and tetramethyl rhodamine isocyanate (546/10 excitation filter, DM575 dichroic mirror, 590 emission filter) fluorescence filter sets.
Supplementary Table S2. The statistical analysis consisted of counting the coloured spo ts (green: SYTO9 and red: PI) in the different channels of 10 replicas for the two concentrations of each antimicrobial peptide and the relative percentages of viable cells is calculated.
250 µM 50 µM % of viability
(1 picture or pasted object on this page, not shown here)

Erwinia amylovora [4] = experiment: Spot test screening of AMPs on plates; format: cell-based, Erwinia amylovora strain PGL Z1; parameters: key to Spot test result at 1 mM / Spot test result at 500 µM / Spot test result at 250 µM / Spot test result at 100 µM / Spot test result at 50 µM / Spot test result at 25 µM / Spot test result at 12.5 µM: +: Clear plaque formation; -: no plaque formation
Experimental: (§1) The bacterial material consisted of E. amylovora strain PGL Z1, isolated in 2013 from pear in Apulia region (Italy), and Xanthomonas campestris pv. campestris strain CFBP 1710 (X. campestris), isolated in 1975 from Brassica oleracea var. botrytis in France, which was used as a control to investigate the bactericidal activity and action mode of AMPs against two different bacteria. The bacterial strains were cultured on yeast extract peptone glucose agar (YPGA) and broth (YPG) media, consisting of 0.5% yeast extract, 0.5% peptone, 1% glucose and 1.5% agar. E. amylovora and X. campestris cell suspensions were prepared in sterile distilled water and the suspensions were adjusted to an optical density at 600 nm (OD600) of 0.1, which corresponds approximately to 10^8 CFU/mL.
The nine AMPs were screened using the spot test to select those with the best antibacterial activity against E. amylovora. Briefly, 300 µL of E. amylovora suspension (10^8 CFU/mL) was poured into the plates and maintained at room temperature for 15 min. Subsequently, 5 μL from each peptide at different concentrations (1000, 500, 250, 100, 50, 25 and 12.5 μM) was spotted onto the surface of the plates, followed by overnight incubation at 25 °C. Sterile distilled water was spotted in the plates as a control.
Supplementary Table S1. Results of the spot tests for the nine antimicrobial peptides used against Erwinia
Ascaphin-8 GF-19 + + + + + - -
DASamP1 FF-13 + + + - - - -
DASamP2 IL-14 + + + + + - -
Lycotoxin I IL-25 + + + + - - -
Maculatin 1.3 GF-21 + + + - - - -
Piscidin 1 FG-22 + + + + + - -
BP178 KL-29 + + + + + + -
RIJK2 RV-12 + + + - - - -
+: Clear plaque formation; -: no plaque formation.

Erwinia amylovora [5] = conditions: 24 h
Experimental: as §1
Briefly, 20 µL from each concentration (50 and 250 µM) was mixed with 180 µL of E. amylovora suspension (YPG) and incubated at 25 °C for 24 h. Six OD600 nm measures were taken over 24 h using the NanoDrop™ One/OneC Microvolume UV-Vis Spectrophotometer (ThermoFisher Scientific, Waltham, MA, USA).

Row | Compound | TEM morphology of treated E. amylovora cells (in words) (Erwinia amylovora [1]) | Reduction of fire blight symptoms (necrotic lesion diameter) (Erwinia amylovora [2]; 20 µL peptide at 50 µM into inoculation site) [%] | Reduction of fire blight symptoms (necrotic lesion diameter) (Erwinia amylovora [2]; 20 µL peptide at 250 µM into inoculation site) [%] | % of viability (Erwinia amylovora [3]; peptide 50 µM) [%] | % of viability (Erwinia amylovora [3]; peptide 250 µM) [%] | Spot test result at 12.5 µM (Erwinia amylovora [4]; 5 µL peptide at 12.5 µM spotted on plate with E. amylovora 10^8 CFU/mL, overnight at 25 °C) | Spot test result at 25 µM (Erwinia amylovora [4]; 5 µL peptide at 25 µM spotted on plate with E. amylovora 10^8 CFU/mL, overnight at 25 °C) | Spot test result at 50 µM (Erwinia amylovora [4]; 5 µL peptide at 50 µM spotted on plate with E. amylovora 10^8 CFU/mL, overnight at 25 °C) | Spot test result at 100 µM (Erwinia amylovora [4]; 5 µL peptide at 100 µM spotted on plate with E. amylovora 10^8 CFU/mL, overnight at 25 °C) | Spot test result at 250 µM (Erwinia amylovora [4]; 5 µL peptide at 250 µM spotted on plate with E. amylovora 10^8 CFU/mL, overnight at 25 °C) | Spot test result at 500 µM (Erwinia amylovora [4]; 5 µL peptide at 500 µM spotted on plate with E. amylovora 10^8 CFU/mL, overnight at 25 °C) | Spot test result at 1 mM (Erwinia amylovora [4]; 5 µL peptide at 1 mM spotted on plate with E. amylovora 10^8 CFU/mL, overnight at 25 °C) | Spot test, killing of E. amylovora at 50 µM (in words) (Erwinia amylovora [4]; peptide 50 µM) | Inhibition of E. amylovora growth (OD600) (Erwinia amylovora [5]; 50 µM) [%] | Inhibition of E. amylovora growth (OD600) (Erwinia amylovora [5]; 250 µM) [%]
1 | CC1(C)S[C@@H]2[C@H](NC(=O)[C@H](N)c3ccccc3)C(=O)N2[C@H]1C(=O)O [ampicillin] | damaged cell walls and the decomposition of inner structures |  |  |  |  |  |  |  |  |  |  |  |  |  | 
2 | FFHHIFRGIVHVGKTIHRLVTG [FG22, Piscidin 1] |  | 48 | 65 | 28 | 49 | - | - | + | + | + | + | + | could kill E. amylovora | ~60 | 92
3 | [H]/N=C(/N)N[C@H]1[C@H](O)[C@@H](O)[C@H](O[C@@H]2O[C@@H](C)[C@](O)(C=O)[C@H]2O[C@@H]2O[C@@H](CO)[C@H](O)[C@@H](O)[C@@H]2NC)[C@@H](N/C(N)=N\[H])[C@@H]1O [streptomycin] | reduced cell lysis and morphological alterations similar to those treated with KL29 at 250 µM |  |  |  |  |  |  |  |  |  |  |  |  |  | 
